{"source": "patent US5200424A", "about": "“Use of 10-membered ring lactones as lipid regulators” (priority 1990, dated 1993)", "key": {"[1]": {"test": "Serum enzymes, bilirubin and creatinine in rats", "format": "in vivo, Rat, male, strain: HOE WISKf (SPF 71)", "experimental": "(§1) Male rats with an initial weight above 180 g received the test product of the formula I in polyethylene glycol 400 by gavage once a day (in the morning) (0.5 ml/100 g of body weight); the relevant control group received only the same amount of solvent. The last (7th) administration took place 24 hours before blood sampling and sacrifice. There was free access to feed and water during the test. Feed was withdrawn 24 hours before the retroorbital blood sampling, which took place under light ether anesthesia before and after the treatment period (that is to say on the 1st and 8th day). Serum glutamic-oxalate transaminase (SGOT), serum glutamic-pyruvic transaminase (SGPT), alkaline phosphatase (aP), bilirubin and creatinine were determined in the serum of each individual animal. The total glycerol was measured from the pooled serum of all animals in a group as measure of the triglycerides (Eggstein, M. Kreutz, F. H.: Klin. Wschr. 44, 262 and 267 (1966); Wahlefeld, A. W., in: H. O. Bergmeier: Methoden der enzymatischen Analyse (Methods of enzymatic analysis), 2nd Edition, Volume II, Verlag Chemie 1974, Page 1878). Immediately after the blood sampling the animals were sacrificed by distortion of the spinal column. The livers were removed, and the relative liver weight was determined. In addition, the body weight gain and the feed consumption were investigated. The statistical analysis was carried out by Student's t test."}, "HEP-G2 cells": {"test_system": "HEP-G2 cells", "test": "Integrity of the cell culture / cell damage (light microscopy, lactic dehydrogenase release)", "format": "cell-based", "experimental": "Monolayers of HEP-G2 cells in liproprotein-free nutrient medium are preincubated with appropriate concentrations of the substances of the formula I to be tested for one hour. After addition of the […] biosynthesis precursor sodium (^14 C)acetate the incubation is continued for 3 hours. After this a portion of the cells is subjected to alkaline hydrolysis after addition of an internal standard of ^3 H-cholesterol. The lipids from the hydrolyzed cells are extracted with a chloroform/methanol mixture. This lipid mixture is, after addition of carrier cholesterol, fractionated by preparative thin-layer chromatography, the cholesterol band is stained and then isolated, and the amount of ^14 C-cholesterol formed from the ^14 C-precursor is determined by scintigraphy. Cellular protein was determined in an aliquot of the cells so that the amount of ^14 C-cholesterol formed from ^14 C-precursor per mg of cellular protein per unit time can be calculated. […] The integrity of the cell culture and the absence of cell damage owing to exposure to the product is assessed morphologically (light microscopy) and measured biochemically by determining the lactic dehydrogenase release into the incubation medium on aliquots of the cell culture."}, "[2]": {"test_system": "cholesterol biosynthesis in HEP-G2 cells", "test": "Cholesterol biosynthesis inhibition in HEP-G2 liver cell cultures (14C-acetate)", "format": "cell-based", "conditions": "Homo sapiens, HepG2, 1 h preincubation, 3 h with (14C)acetate, read-out: inhibits biosynthesis by 50% at", "experimental": "Monolayers of HEP-G2 cells in liproprotein-free nutrient medium are preincubated with appropriate concentrations of the substances of the formula I to be tested for one hour. After addition of the […] biosynthesis precursor sodium (^14 C)acetate the incubation is continued for 3 hours. After this a portion of the cells is subjected to alkaline hydrolysis after addition of an internal standard of ^3 H-cholesterol. The lipids from the hydrolyzed cells are extracted with a chloroform/methanol mixture. This lipid mixture is, after addition of carrier cholesterol, fractionated by preparative thin-layer chromatography, the cholesterol band is stained and then isolated, and the amount of ^14 C-cholesterol formed from the ^14 C-precursor is determined by scintigraphy. Cellular protein was determined in an aliquot of the cells so that the amount of ^14 C-cholesterol formed from ^14 C-precursor per mg of cellular protein per unit time can be calculated. The control is used for comparison for the inhibitory effect of an added test product so that it is possible to state directly the inhibition of the cholesterol biosynthesis at a particular molar concentration of the test product in the medium. The integrity of the cell culture and the absence of cell damage owing to exposure to the product is assessed morphologically (light microscopy) and measured biochemically by determining the lactic dehydrogenase release into the incubation medium on aliquots of the cell culture."}, "serum lipoproteins": {"test_system": "serum lipoproteins", "test": "Lipoprotein fractionation by ultracentrifugation in rats (serum cholesterol, protein, triglycerides; hypolipemic effect)", "format": "in vivo, Rat, male, strain: HOE WISKf (SPF 71)", "experimental": "as §1, with “The total glycerol was measured from the pooled serum of all animals in a group as measure of the triglycerides (Eggstein, M. Kreutz, F. H.: Klin. Wschr. 44, 262 and 267 (1966); Wahlefeld, A. W., in: H. O. Bergmeier: Methoden der enzymatischen Analyse (Methods of enzymatic analysis), 2nd Edition, Volume II, Verlag Chemie 1974, Page 1878).” left out\nTo analyze the serum lipoproteins, after the treatment period the serum of all rats in a group was pooled."}, "[3]": {"test": "Body weight, relative liver weight and feed consumption in rats", "format": "in vivo, Rat, male, strain: HOE WISKf (SPF 71)", "conditions": "15 mg/kg/day, male rat, after treatment", "experimental": "as §1"}, "[4]": {"conditions": "15 mg/kg/day, male rat, after treatment (8th day)"}, "[5]": {"conditions": "15 mg/kg/day, male rat, before treatment (1st day)"}, "[6]": {"conditions": "15 mg/kg/day, male rat, by gavage, 7 administrations"}}}
{"molecule": "CC1CC(O)C=CC(O)C(O)CC(=O)O1", "note": "(stereo not shown)", "values": [{"measurement": "Bilirubin, Final, mean", "setting": "[1]; [4]", "result": 2.0, "unit": "µmol/L"}, {"measurement": "Creatinine, Final, mean", "setting": "[1]; [4]", "result": 64, "unit": "µmol/L"}, {"measurement": "Serum enzymes SGOT, Final, mean", "setting": "[1]; [4]", "result": 56, "unit": "U/L"}, {"measurement": "Serum enzymes SGPT, Final, mean", "setting": "[1]; [4]", "result": 25, "unit": "U/L"}, {"measurement": "Serum enzymes aP, Final, mean", "setting": "[1]; [4]", "result": 247, "unit": "U/L"}, {"measurement": "Bilirubin, Initial, mean", "setting": "[1]; [5]", "result": 2.8, "unit": "µmol/L"}, {"measurement": "Creatinine, Initial, mean", "setting": "[1]; [5]", "result": 67, "unit": "µmol/L"}, {"measurement": "Serum enzymes SGOT, Initial, mean", "setting": "[1]; [5]", "result": 41, "unit": "U/L"}, {"measurement": "Serum enzymes SGPT, Initial, mean", "setting": "[1]; [5]", "result": 29, "unit": "U/L"}, {"measurement": "Serum enzymes aP, Initial, mean", "setting": "[1]; [5]", "result": 359, "unit": "U/L"}, {"measurement": "tolerability parameters: SGOT, SGPT, aP, serum bilirubin and serum creatinine", "setting": "[1]; rat", "result": "not pathologically changed"}, {"measurement": "cell culture damage", "setting": "HEP-G2 cells", "result": "not damaged"}, {"measurement": "IC50", "setting": "[2]", "result": 100, "unit": "nM"}, {"measurement": "% Change compared with control, Protein LDL", "setting": "serum lipoproteins; [6]", "result": -20, "unit": "%"}, {"measurement": "% Change compared with control, Protein VLDL", "setting": "serum lipoproteins; [6]", "result": -12, "unit": "%"}, {"measurement": "% Change compared with control, Total cholesterol HDL", "setting": "serum lipoproteins; [6]", "result": -13, "unit": "%"}, {"measurement": "% Change compared with control, Total cholesterol LDL", "setting": "serum lipoproteins; [6]", "result": -31, "unit": "%"}, {"measurement": "% Change compared with control, Total cholesterol VLDL", "setting": "serum lipoproteins; [6]", "result": -40, "unit": "%"}, {"measurement": "% Change compared with control, Triglycerides VLDL", "setting": "serum lipoproteins; [6]", "result": -22, "unit": "%"}, {"measurement": "Cholesterol HDL/LDL Based on control", "setting": "serum lipoproteins; 15 mg/kg/day, male rat, by gavage, control 1.00", "result": 1.26}, {"measurement": "Cholesterol HDL/LDL", "setting": "serum lipoproteins; 15 mg/kg/day, male rat, by gavage, control 3.75", "result": 4.74}, {"measurement": "reduction in the triglycerides (mainly transported in the VLDL)", "setting": "serum lipoproteins; rat", "result": "distinct reduction"}, {"measurement": "vasoprotective index HDL-cholesterol: LDL-cholesterol", "setting": "serum lipoproteins; rat", "result": "significant increase"}, {"measurement": "reduction in the atherogenic serum lipoproteins LDL and VLDL (cholesterol content)", "setting": "serum lipoproteins; rat, at one seventh of the dose of clofibrate, compared with clofibrate", "result": "equally great reduction"}, {"measurement": "reduction in the HDL fraction", "setting": "serum lipoproteins; rat, compared with clofibrate", "result": "only half as large"}, {"measurement": "vasoprotective index HDL-cholesterol: LDL-cholesterol compared with clofibrate", "setting": "serum lipoproteins; rat, compared with clofibrate", "result": "distinctly higher than with clofibrate"}, {"measurement": "% Change from control, Body weight after", "setting": "[3]", "result": -3, "unit": "%"}, {"measurement": "% Change from control, rel. feed consumption after", "setting": "[3]", "result": -1, "unit": "%"}]}
